In patent publication US8815840B2, “Carbazole and carboline kinase inhibitors” (Bristol-Myers Squibb Company, priority 2008, dated 2014):

Target: JAK2 (Homo sapiens (Human), UniProt O60674)
Assay: JAK2 Tyrosine Kinase Assay
Type: biochemical
Details: ATP 30 μM; JAK2 1 nM; 60 min at room temperature
Procedure: JAK2 Tyrosine Kinase Assay
The assays were performed in V-bottom 384-well plates. […] The reaction was initiated by the combination of JAK2 with substrates and test compounds. The reaction was incubated at room temperature for 60 min. and terminated by adding 45 μl of 35 mM EDTA to each sample. The reaction mixture was analyzed on the Caliper LABCHIP® 3000 by electrophoretic separation of the fluorescent substrate and phosphorylated product. […] Compounds were dissolved at 10 mM in dimethylsulfoxide (DMSO) and evaluated at eleven concentrations, each in duplicate. IC50 values were derived by non-linear regression analysis

JAK2, sequence (O60674 whole entry): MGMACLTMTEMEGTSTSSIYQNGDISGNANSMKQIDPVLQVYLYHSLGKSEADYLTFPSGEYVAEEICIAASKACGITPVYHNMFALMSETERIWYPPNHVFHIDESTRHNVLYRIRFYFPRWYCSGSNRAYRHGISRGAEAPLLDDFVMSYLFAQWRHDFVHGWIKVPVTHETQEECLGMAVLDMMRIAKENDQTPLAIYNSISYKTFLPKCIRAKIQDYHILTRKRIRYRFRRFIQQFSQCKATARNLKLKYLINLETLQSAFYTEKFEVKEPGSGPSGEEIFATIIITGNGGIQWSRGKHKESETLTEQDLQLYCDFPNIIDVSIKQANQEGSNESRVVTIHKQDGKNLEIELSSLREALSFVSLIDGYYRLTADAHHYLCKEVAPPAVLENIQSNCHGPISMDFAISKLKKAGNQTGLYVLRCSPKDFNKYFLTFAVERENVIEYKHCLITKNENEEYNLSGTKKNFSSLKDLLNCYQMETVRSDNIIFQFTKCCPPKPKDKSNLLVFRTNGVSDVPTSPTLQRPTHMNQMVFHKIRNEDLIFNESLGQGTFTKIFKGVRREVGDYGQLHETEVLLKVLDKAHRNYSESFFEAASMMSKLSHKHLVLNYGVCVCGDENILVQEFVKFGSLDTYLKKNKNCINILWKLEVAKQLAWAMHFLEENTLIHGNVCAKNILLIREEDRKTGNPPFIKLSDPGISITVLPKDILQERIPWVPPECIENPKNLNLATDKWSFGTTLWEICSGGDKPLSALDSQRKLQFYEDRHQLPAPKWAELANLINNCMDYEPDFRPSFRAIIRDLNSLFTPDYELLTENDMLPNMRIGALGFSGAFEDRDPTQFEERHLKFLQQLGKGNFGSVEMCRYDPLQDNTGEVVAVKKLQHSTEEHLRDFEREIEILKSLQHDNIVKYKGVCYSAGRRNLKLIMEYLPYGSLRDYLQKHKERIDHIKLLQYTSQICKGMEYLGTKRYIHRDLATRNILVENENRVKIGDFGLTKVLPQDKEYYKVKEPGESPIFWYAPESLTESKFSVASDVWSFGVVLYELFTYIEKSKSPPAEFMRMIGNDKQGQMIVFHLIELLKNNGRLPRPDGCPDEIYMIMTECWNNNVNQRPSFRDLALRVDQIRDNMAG

| SMILES | IC50 |
| --- | --- |
| COCCOc1ccc(-c2cc(C(N)=O)c3[nH]c4cc(N5CCOCC5)ccc4c3n2)cc1Cl [Example 357, 2-(3-chloro-4-(2-methoxyethoxy)phenyl)-7-morpholino-5H-pyrido[3,2-b]indole-4-carboxamide] | 6 nM |
| COc1ccc(-c2nc(C(N)=O)c3[nH]c4cc(OC)ccc4c3n2)cc1 [Example 210, 7-Methoxy-2-(4-methoxyphenyl)-5H-pyrimido[5,4-b]indole-4-carboxamide] | 170 nM |
| CN1CCN(C(=O)c2ccc3c(c2)[nH]c2c(C(N)=O)cc(-c4ccccc4)cc23)CC1 [Example 80, 7-((4-methyl-1-piperazinyl)carbonyl)-3-phenyl-9H-carbazole-1-carboxamide] | 6 nM |
| NC(=O)c1cc(-c2ccc(Cl)c(Cl)c2)cc2c1[nH]c1ccc(C(=O)N[C@@H]3CCNC3)cc12 [Example 49, 3-(3,4-dichlorophenyl)-N^6-((3R)-3-pyrrolidinyl)-9H-carbazole-1,6-dicarboxamide] | 6 nM |
| NC(=O)c1cc(-c2ccc(CN3CCOCC3)cc2)nc2c1[nH]c1cc(N3CCS(=O)(=O)CC3)ccc12 [Example 323, 7-(1,1-Dioxido-4-thiomorpholinyl)-2-(4-(4-morpholinylmethyl)phenyl)-5H-pyrido[3,2-b]indole-4-carboxamide] | 1 nM |
| NC(=O)c1cc(-c2ccc(CN3CCOCC3)s2)nc2c1[nH]c1cc(N3CCOCC3)ccc12 [Example 345, 7-morpholino-2-(5-(morpholinomethyl)thiophen-2-yl)-5H-pyrido[3,2-b] indole-4-carboxamide] | 1 nM |
| COc1ccc(-c2cc(C(N)=O)c3[nH]c4ccc(C(=O)N5CCOCC5)cc4c3c2)cc1OC [Example 166, 3-(3,4-dimethoxyphenyl)-6-(4-morpholinylcarbonyl)-9H-carbazole-1-carboxamide] | 6 nM |
| NC(=O)c1cc(-c2cccc(C(F)(F)F)c2)nc2c1[nH]c1cc(N3CCNCC3)ccc12 [Example 316, 7-(Piperazin-1-yl)-2-(3-(trifluoromethyl)phenyl)-5H-pyrido[3,2-b]indole-4-carboxamide] | 6 nM |
| NC(=O)c1cc(-c2ccc(CN3CCOCC3)c(Cl)c2)cc2c1[nH]c1cc(-c3ccc(N4CCOCC4)nc3)ccc12 [Example 482, 3-(3-Chloro-4-(morpholinomethyl)phenyl)-7-(6-morpholinopyridin-3-yl)-9H-carbazole-1-carboxamide] | 917 nM |
| NC(=O)c1cc(-c2ccc(OC3CCNCC3)c(Cl)c2)nc2c1[nH]c1cc(N3CCOCC3)ccc12 [Example 360, 2-(3-chloro-4-(piperidin-4-yloxy)phenyl)-7-morpholino-5H-pyrido[3,2-b]indole-4-carboxamide] | 7 nM |
| NC(=O)c1cc(-c2ccc(Cl)c(Cl)c2)cc2c1[nH]c1ccc(C(=O)NCCN3CCOCC3)cc12 [Example 51, 3-(3,4-dichlorophenyl)-N^6-(2-(4-morpholinyl)ethyl)-9H-carbazole-1,6-dicarboxamide] | 6 nM |
| NC(=O)c1cc(-c2cccc(Cl)c2)cc2c1[nH]c1ccc(C(=O)N3CCOC(CO)C3)cc12 (stereo not shown) [Example 185, 3-(3-chlorophenyl)-6-(2-(hydroxymethyl)morpholine-4-carbonyl)-9H-carbazole-1-carboxamide] | 1 nM |
| COc1ccc(-c2cc(C(N)=O)c3[nH]c4nc(OC)ccc4c3n2)cc1 [Example 129, 7-Methoxy-2-(4-methoxyphenyl)-5H-pyrido[2′,3′:4,5]pyrrolo[2,3-b]pyridine-4-carboxamide] | 110 nM |
| COCCCN1CCN(C(=O)c2ccc3c(c2)[nH]c2c(C(N)=O)cc(-c4cccc(OC)c4)cc23)CC1 [Example 106, 3-(3-methoxyphenyl)-7-((4-(3-methoxypropyl)-1-piperazinyl)carbonyl)-9H-carbazole-1-carboxamide] | < 1 nM |
| Cn1nc(C(F)(F)F)cc1-c1cc(C(N)=O)c2[nH]c3cc(C(=O)N4CCOCC4)ccc3c2n1 [Example 464, 2-(1-methyl-3-(trifluoromethyl)-1H-pyrazol-5-yl)-7-(morpholine-4-carbonyl)-5H-pyrido[3,2-b]indole-4-carboxamide] | 314 nM |
| NC(=O)c1nc(-c2ccccc2)cc2c1[nH]c1cc(C(=O)N3CCOCC3)ccc12 [Example 469, 7-(Morpholine-4-carbonyl)-3-phenyl-9H-pyrido[3,4-b]indole-1-carboxamide] | 11 nM |

Next, values leading:

| IC50 | SMILES |
| --- | --- |
| 111 nM | COc1ccc(-c2cc(C(N)=O)c3[nH]c4cc(C(=O)O)ccc4c3c2)cc1F [Example 395, 8-Carbamoyl-6-(3-fluoro-4-methoxyphenyl)-9H-carbazole-2-carboxylate] |
| 6 nM | CN1CCN(C(=O)c2ccc3c(c2)[nH]c2c(C(N)=O)cc(-c4ccc(Cl)c(Cl)c4)cc23)CC1 [Example 61, 3-(3,4-dichlorophenyl)-7-((4-methyl-1-piperazinyl)carbonyl)-9H-carbazole-1-carboxamide] |
| 7 nM | NC(=O)c1cc(-c2ccc(Cl)c(Cl)c2)nc2c1[nH]c1cc(OCCN3CCOCC3)ccc12 [Example 245] |
| 6 nM | CN1CCN(c2ccc(-c3cc(C(N)=O)c4[nH]c5cc(C(=O)N6CCOCC6)ccc5c4n3)cc2)CC1 [Example 468, 2-(4-(4-methylpiperazin-1-yl)phenyl)-7-(morpholine-4-carbonyl)-5H-pyrido[3,2-b]indole-4-carboxamide] |
| 150 nM | CC(C)Oc1ccc2[nH]c3c(C(N)=O)cc(-c4ccc(Cl)c(Cl)c4)cc3c2c1 [Example 140, 3-(3,4-Dichlorophenyl)-6-isopropoxy-9H-carbazole-1-carboxamide] |
| 286 nM | CN(C)C(=O)c1ccc(-c2cc(C(N)=O)c3[nH]c4cc(C(=O)N5CCOCC5)ccc4c3c2)cc1 [Example 558, 3-(4-(dimethylcarbamoyl)phenyl)-7-(4-morpholinylcarbonyl)-9H-carbazole-1-carboxamide] |
| 1 nM | NC(=O)c1cc(-c2ccc(OCCN3CCOCC3)c(Cl)c2)nc2c1[nH]c1cc(N3CCOCC3)ccc12 [Example 353, 2-(3-Chloro-4-(2-morpholinoethoxy)phenyl)-7-morpholino-5H-pyrido[3 ,2-b]indole-4-carboxamide] |
| 1 nM | COc1ccc(-c2cc(C(N)=O)c3[nH]c4cc(N5CCN(C)CC5)ccc4c3n2)cc1F [Example 310, 2-(3-fluoro-4-methoxyphenyl)-7-(4-methylpiperazin-1-yl)-5H-pyrido[3,2-b]indole-4-carboxamide] |
| < 1 nM | COc1cccc(-c2cc(C(N)=O)c3[nH]c4cc(C(=O)N(C)CCS(C)(=O)=O)ccc4c3c2)c1 [Example 96, 3-(3-methoxyphenyl)-N^7-methyl-N^7-(2-(methylsulfonyl)ethyl)-9H-carbazole-1,7-dicarboxamide] |
| 1 nM | NC(=O)c1cc(-c2ccc(CN3CCOCC3)s2)nc2c1[nH]c1cc(N3CCOCC3=O)ccc12 [Example 324, 2-(5-(Morpholinomethyl)thiophen-2-yl)-7-(3-oxomorpholino)-5H-pyrido[3,2-b]indole-4-carboxamide] |
| 142 nM | NC(=O)c1cc(N2CCOCC2)nc2c1[nH]c1cc(C(=O)N3CCOCC3)ccc12 [Example 403, 7-(morpholine-4-carbonyl)-2-morpholino-5H-pyrido[3,2-b]indole-4-carboxamide] |
| 6 nM | COc1cccc(-c2cc(C(N)=O)c3[nH]c4cc(C(=O)N5CCN(Cc6cccnc6)CC5)ccc4c3c2)c1 [Example 88, 3-(3-methoxyphenyl)-7-((4-(3-pyridinylmethyl)-1-piperazinyl)carbonyl)-9H-carbazole-1-carboxamide] |
| 310 nM | COC(=O)c1ccc2c(c1)[nH]c1c(C(N)=O)cc(-c3cccc(OC)c3)cc12 [Example 142, Methyl 8-carbamoyl-6-(3-methoxyphenyl)-9H-carbazole-2-carboxylate] |
| 1 nM | NC(=O)c1cc(-c2ncccn2)cc2c1[nH]c1cc(C(=O)N3CCOCC3)ccc12 [Example 430, 7-(Morpholine-4-carbonyl)-3-(pyrimidin-2-yl)-9H-carbazole-1-carboxamide] |
| 6 nM | NC(=O)c1cc(-c2ccc(CO)nc2)nc2c1[nH]c1cc(N3CCOCC3)ccc12 [Example 500, 2-(6-(hydroxymethyl)pyridin-3-yl)-7-morpholino-5H-pyrido[3,2-b]indole-4-carboxamide] |
| 1 nM | CN(C)c1ccc(-c2cc(C(N)=O)c3[nH]c4cc(N5CCOCC5)ccc4c3n2)cn1 [Example 503, 2-(6-(dimethylamino)pyridin-3-yl)-7-morpholino-5H-pyrido[3,2-b]indole-4-carboxamide] |
| 2 nM | NC(=O)c1cc(-c2ccc(Cl)cc2)nc2c1[nH]c1cc(C(=O)N3CCOCC3)ccc12 [Example 227, 2-(4-chlorophenyl)-7-(4-morpholinylcarbonyl)-5H-pyrido[3,2-b]indole-4-carboxamide] |
| 160 nM | COc1cc(-c2cc(C(N)=O)c3[nH]c4ccc(C(=O)N5CCOC(CO)C5)cc4c3c2)cc(OC)c1OC (stereo not shown) [Example 183, 6-(2-(hydroxymethyl)morpholine-4-carbonyl)-3-(3,4,5-trimethoxyphenyl)-9H-carbazole-1-carboxamide] |
| 1 nM | NC(=O)c1cc(-c2cccc(Cl)c2)cc2c1[nH]c1ccc(C(=O)N3CCOCC3)cc12 [Example 15, 3-(3-chlorophenyl)-6-(morpholine-4-carbonyl)-9H-carbazole-1-carboxamide] |
| < 1 nM | COc1ccc(-c2cc(C(N)=O)c3[nH]c4cc(C(=O)N5CC[C@H](N(C)C)C5)ccc4c3n2)cc1F [Example 211, (S)-7-(3-(Dimethylamino)pyrrolidine-1-carbonyl)-2-(3-fluoro-4-methoxyphenyl)-5H-pyrido[3,2-b]indole-4-carboxamide] |
| 6 nM | NC(=O)c1cc(-c2cc(CN3CCOCC3)co2)nc2c1[nH]c1cc(N3CCOCC3)ccc12 [Example 374, 7-morpholino-2-(4-(mor-pholinomethyl)furan-2-yl)-5H-pyrido[3,2-b]indole-4-carboxamide] |
